#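 How tested: cells in 96-well plates exposed to compound for 48 hours at five concentrations. At the GI50, growth is halved. TGI denotes the concentration required for complete inhibition of growth.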
# Columns and labels:
# Experiment in all cases: growth of human tumour cells (NCI), 48 h
# MDA-MB-468 breast = system: MDA-MB-468 breast
# OVCAR-8 ovarian = system: OVCAR-8 ovarian
# SF-268 CNS = system: SF-268 CNS
# CAKI-1 renal = system: CAKI-1 renal
# MDA-MB-231 breast = system: MDA-MB-231 breast
# HCT-116 colon = system: HCT-116 colon
# OVCAR-5 ovarian = system: OVCAR-5 ovarian
# SK-MEL-5 melanoma = system: SK-MEL-5 melanoma
# SF-539 CNS = system: SF-539 CNS
# UO-31 renal = system: UO-31 renal
# 786-0 renal = system: 786-0 renal
# OVCAR-3 ovarian = system: OVCAR-3 ovarian
# K-562 leukemia = system: K-562 leukemia
# A549 NSCLC = system: A549 NSCLC
# HOP-92 NSCLC = system: HOP-92 NSCLC
# HOP-62 NSCLC = system: HOP-62 NSCLC
# SF-295 CNS = system: SF-295 CNS
# UACC-257 melanoma = system: UACC-257 melanoma
# KM12 colon = system: KM12 colon
# DU-145 prostate = system: DU-145 prostate
# EKVX NSCLC = system: EKVX NSCLC
# SR leukemia = system: SR leukemia
# NCI-H23 lung = system: NCI-H23 lung
# SNB-75 CNS = system: SNB-75 CNS
# MDA-MB-435 = system: MDA-MB-435
# NCI-H460 lung = system: NCI-H460 lung
# RPMI-8226 leukemia = system: RPMI-8226 leukemia
# HCC-2998 colon = system: HCC-2998 colon
# SK-MEL-2 melanoma = system: SK-MEL-2 melanoma
# HS 578T breast = system: HS 578T breast
# HT29 colon = system: HT29 colon
# ACHN renal = system: ACHN renal
# MALME-3M melanoma = system: MALME-3M melanoma
# SNB-19 CNS = system: SNB-19 CNS
# T-47D breast = system: T-47D breast
# TK-10 renal = system: TK-10 renal
# NCI-H226 lung = system: NCI-H226 lung
# PC-3 prostate = system: PC-3 prostate
# CCRF-CEM leukemia = system: CCRF-CEM leukemia
# BT-549 breast = system: BT-549 breast
# MCF7 breast = system: MCF7 breast
# IGROV1 ovarian = system: IGROV1 ovarian
# OVCAR-4 ovarian = system: OVCAR-4 ovarian
# RXF 393 renal = system: RXF 393 renal
# UACC-62 melanoma = system: UACC-62 melanoma
# NCI-H522 lung = system: NCI-H522 lung
# SW-620 colon = system: SW-620 colon
# SK-MEL-28 melanoma = system: SK-MEL-28 melanoma
# SK-OV-3 ovarian = system: SK-OV-3 ovarian
# LOX IMVI melanoma = system: LOX IMVI melanoma
# U251 CNS = system: U251 CNS
# HL-60(TB) leukemia = system: HL-60(TB) leukemia
# NCI/ADR-RES ovarian = system: NCI/ADR-RES ovarian
# A498 renal = system: A498 renal
# MOLT-4 leukemia = system: MOLT-4 leukemia
# SN12C renal = system: SN12C renal
# COLO 205 colon = system: COLO 205 colon
# M14 melanoma = system: M14 melanoma
# HCT-15 colon = system: HCT-15 colon
smiles,measurement,setting,value
COc1cc2oc(-c3cccc(C(=O)Nc4ccc(Cl)cc4)c3)cc(=O)c2c(OCCNC(=O)[C@H](CO)NC(=O)OC(C)(C)C)c1OC,GI50,MDA-MB-468 breast,13.9 µM
same,TGI,MDA-MB-468 breast,35 µM
same,GI50,OVCAR-8 ovarian,5.78 µM
same,TGI,OVCAR-8 ovarian,> 100 µM
same,GI50,SF-268 CNS,21.5 µM
same,TGI,SF-268 CNS,> 100 µM
same,GI50,CAKI-1 renal,5.8 µM
same,TGI,CAKI-1 renal,> 100 µM
same,GI50,MDA-MB-231 breast,4.7 µM
same,TGI,MDA-MB-231 breast,33.9 µM
same,GI50,HCT-116 colon,6.03 µM
same,TGI,HCT-116 colon,> 100 µM
same,GI50,OVCAR-5 ovarian,8.01 µM
same,TGI,OVCAR-5 ovarian,> 100 µM
same,GI50,SK-MEL-5 melanoma,5.48 µM
same,TGI,SK-MEL-5 melanoma,19.6 µM
same,GI50,SF-539 CNS,12.1 µM
same,TGI,SF-539 CNS,45 µM
same,GI50,UO-31 renal,19.9 µM
same,TGI,UO-31 renal,> 100 µM
same,GI50,786-0 renal,19.7 µM
same,TGI,786-0 renal,> 100 µM
same,GI50,OVCAR-3 ovarian,10.8 µM
same,TGI,OVCAR-3 ovarian,> 100 µM
same,GI50,K-562 leukemia,4.23 µM
same,TGI,K-562 leukemia,> 100 µM
same,GI50,A549 NSCLC,10.5 µM
same,TGI,A549 NSCLC,> 100 µM
same,GI50,HOP-92 NSCLC,4.24 µM
same,TGI,HOP-92 NSCLC,> 100 µM
same,GI50,HOP-62 NSCLC,16.1 µM
same,TGI,HOP-62 NSCLC,> 100 µM
same,GI50,SF-295 CNS,12.4 µM
same,TGI,SF-295 CNS,53.2 µM
same,GI50,UACC-257 melanoma,12.6 µM
same,TGI,UACC-257 melanoma,27.8 µM
same,GI50,KM12 colon,28.7 µM
same,TGI,KM12 colon,> 100 µM
same,GI50,DU-145 prostate,17.8 µM
same,TGI,DU-145 prostate,> 100 µM
same,GI50,EKVX NSCLC,9.89 µM
same,TGI,EKVX NSCLC,> 100 µM
same,GI50,SR leukemia,3.01 µM
same,TGI,SR leukemia,18.2 µM
same,GI50,NCI-H23 lung,14.9 µM
same,TGI,NCI-H23 lung,> 100 µM
same,GI50,SNB-75 CNS,8.45 µM
same,TGI,SNB-75 CNS,> 100 µM
same,GI50,MDA-MB-435,12.4 µM
same,TGI,MDA-MB-435,42.6 µM
same,GI50,NCI-H460 lung,6.48 µM
same,TGI,NCI-H460 lung,> 100 µM
same,GI50,RPMI-8226 leukemia,2.85 µM
same,TGI,RPMI-8226 leukemia,> 100 µM
same,GI50,HCC-2998 colon,15.5 µM
same,TGI,HCC-2998 colon,74 µM
same,GI50,SK-MEL-2 melanoma,15.4 µM
same,TGI,SK-MEL-2 melanoma,> 100 µM
same,GI50,HS 578T breast,8.01 µM
same,TGI,HS 578T breast,94.6 µM
same,GI50,HT29 colon,6.92 µM
same,TGI,HT29 colon,57.4 µM
same,GI50,ACHN renal,19.5 µM
same,TGI,ACHN renal,> 100 µM
same,GI50,MALME-3M melanoma,11 µM
same,TGI,MALME-3M melanoma,51.5 µM
same,GI50,SNB-19 CNS,28.8 µM
same,TGI,SNB-19 CNS,> 100 µM
same,GI50,T-47D breast,5.63 µM
same,TGI,T-47D breast,> 100 µM
same,GI50,TK-10 renal,19.9 µM
same,TGI,TK-10 renal,> 100 µM
same,GI50,NCI-H226 lung,13.8 µM
same,TGI,NCI-H226 lung,> 100 µM
same,GI50,PC-3 prostate,6.82 µM
same,TGI,PC-3 prostate,> 100 µM
same,GI50,CCRF-CEM leukemia,5.54 µM
same,TGI,CCRF-CEM leukemia,> 100 µM
same,GI50,BT-549 breast,3.06 µM
same,TGI,BT-549 breast,19.9 µM
same,GI50,MCF7 breast,10.1 µM
same,TGI,MCF7 breast,> 100 µM
same,GI50,IGROV1 ovarian,10.7 µM
same,TGI,IGROV1 ovarian,> 100 µM
same,GI50,OVCAR-4 ovarian,9.86 µM
same,TGI,OVCAR-4 ovarian,> 100 µM
same,GI50,RXF 393 renal,4.2 µM
same,TGI,RXF 393 renal,22 µM
same,GI50,UACC-62 melanoma,20.3 µM
same,TGI,UACC-62 melanoma,> 100 µM
same,GI50,NCI-H522 lung,5.18 µM
same,TGI,NCI-H522 lung,> 100 µM
same,GI50,SW-620 colon,30.1 µM
same,TGI,SW-620 colon,> 100 µM
same,GI50,SK-MEL-28 melanoma,9.5 µM
same,TGI,SK-MEL-28 melanoma,28.2 µM
same,GI50,SK-OV-3 ovarian,79.2 µM
same,TGI,SK-OV-3 ovarian,> 100 µM
same,GI50,LOX IMVI melanoma,3.82 µM
same,TGI,LOX IMVI melanoma,20.7 µM
same,GI50,U251 CNS,17.8 µM
same,TGI,U251 CNS,> 100 µM
same,GI50,HL-60(TB) leukemia,5.41 µM
same,TGI,HL-60(TB) leukemia,22.1 µM
same,GI50,NCI/ADR-RES ovarian,51.4 µM
same,TGI,NCI/ADR-RES ovarian,> 100 µM
same,GI50,A498 renal,27.2 µM
same,TGI,A498 renal,77.9 µM
same,GI50,MOLT-4 leukemia,3.2 µM
same,TGI,MOLT-4 leukemia,21.8 µM
same,GI50,SN12C renal,8.47 µM
same,TGI,SN12C renal,> 100 µM
same,GI50,COLO 205 colon,7.16 µM
same,TGI,COLO 205 colon,71.6 µM
same,GI50,M14 melanoma,8.53 µM
same,TGI,M14 melanoma,55.6 µM
same,GI50,HCT-15 colon,7.43 µM
same,TGI,HCT-15 colon,> 100 µM
COc1cccc(COc2cc(-n3cnc4ccccc43)sc2C(N)=O)c1,GI50,MDA-MB-468 breast,0.717 µM
same,TGI,MDA-MB-468 breast,6.17 µM
COc1ccc(-n2nc(C)c3c(Nc4ccc(NC(=O)Nc5ccc(Cl)c(C(F)(F)F)c5)cc4)ncnc32)cc1,GI50,MDA-MB-468 breast,1.88 µM
same,TGI,MDA-MB-468 breast,4.62 µM

# Reference: PubChem BioAssay (NCI)
